Assay results taken from patent publication US20130096067A1, “DROSOPHILA TUMOR STEM CELL MODEL AND USES THEREOF” (priority 2011, published 2013).
Like-named read-outs stand apart in the source and are kept apart here. Peptide text beside a SMILES is read from it. * marks the point of attachment. Cbz = O=C(OCc1ccccc1)*; CH2F = FC*

Tested on: Raf-1^gof intestinal tumors
[1] = screen of 480 ICCB compounds in vials, compounds fed to flies with one-day old Raf-1^gof tumors, assessed three days later, esg-Gal4 luciferase
[2] = screen of 480 ICCB compounds in vials, compounds fed to flies with one-day old Raf-1^gof tumors, assessed three days later, esg-Gal4 luciferase, averaged from multiple wells
[3] = ICCB compounds fed in vials to flies with one-day old Raf-1^gof tumors, assessed three days later
[4] = ICCB compounds fed in vials to flies with one-day old Raf-1^gof tumors, assessed three days later, averaged from multiple wells
Further: test concentration or dose not given here.

Row | Compound | Log2 (fold) (luciferase activity, log2 of the fold difference relative to DMSO controls) [1] | Fold (luciferase activity, fold difference relative to DMSO controls) [2] | Log2 (fold) of luciferase activity relative to DMSO controls [3] | Fold (luciferase activity relative to DMSO controls) [4] [fold] | further results
1 | C1CCC[C@H]2CCCN3CC[C@@H](CCCCCC[C@@H]4CCCN5CC[C@@H](CC1)O[C@@H]45)O[C@@H]23 [Xestospongin C] | −0.456 | 0.729 |  |  | 
2 | COc1ccc([C@@H]2Sc3ccccc3N(CCN(C)C)C(=O)[C@@H]2OC(C)=O)cc1 [DILTIAZEM] |  |  | −0.205 | 0.868 | 
3 | Oc1ccc(C=Cc2cc(O)cc(O)c2)cc1 [resveratrol] | −0.551 | 0.682 |  |  | 
4 | CCCCCC(O)c1cccc(OCc2ccc3ccccc3n2)c1 (stereo not shown) [REV-5901] | −0.282 | 0.822 |  |  | 
5 | CC(=O)C1=C(O)[C@@H]2[C@H]3c4c[nH]c5cccc(c45)C[C@H]3C(C)(C)N2C1=O [CYCLOPIAZONIC ACID] |  |  | 0.072 | 1.051 | 
6 | CCCCC/C=C\C/C=C\C/C=C\C/C=C\CCCC(=O)O[C@H](COCCCCCCCCCCCCCCCC)COP(=O)([O-])OCC[N+](C)(C)C [ARACHIDONOYL-PAF] | −0.439 | 0.738 |  |  | 
7 | COCCCCCCCCCCCC(=O)O [12-METHOXYDODECANOIC ACID] | −0.320 | 0.801 |  |  | 
8 | O=C(O)CN1C(=O)c2cccc3cccc(c23)C1=O [Alrestatin] | −0.320 | 0.801 |  |  | 
9 | CCCCCCCCCCC/C=C\C(C)(C)/C=C\CCCC(=O)O [7,7-DIMETHYLEICOSADIENOIC ACID] |  |  | 0.021 | 1.014 | 
10 | CCN(CC)CCNC(=O)c1ccc(N)cc1 [PROCAINAMIDE] | −0.346 | 0.787 |  |  | 
11 | O=c1[nH]c2cc(C(F)(F)F)ccc2n1-c1cc(C(F)(F)F)ccc1O [NS-1619] | −0.495 | 0.709 |  |  | 
12 | C[S+]([O-])c1ccc(-c2nc(-c3ccc(F)cc3)c(-c3ccncc3)[nH]2)cc1 (stereo not shown) [SB 203580] |  |  |  |  | Fold (luciferase activity relative to DMSO controls) (in vivo): 1.036 fold; Log2 (fold) of luciferase activity relative to DMSO controls (in vivo): 0.051
13 | CCNC(=O)[C@H]1O[C@@H](n2cnc3c(N)ncnc32)[C@H](O)[C@@H]1O [5′-N-Ethylcarboxamidoadenosine (NECA)] |  |  | −0.024 | 0.983 | 
14 | CC1=C(/C=C/C(C)=C/C=C/C(C)=C\C(=O)O)C(C)(C)CCC1 [13-CIS RETINOIC ACID] |  |  | 0.074 | 1.053 | 
15 | CC(C)Cn1c(=O)n(C)c(=O)c2[nH]cnc21 [IBMX] | −0.297 | 0.814 |  |  | 
16 | Nc1ncnc2c1ncn2C1CCCO1 (stereo not shown) [SQ22536] | −0.270 | 0.829 |  |  | 
17 | CC(C)=CCC/C(C)=C/CC/C(C)=C/CSCC(=O)O [FARNESYLTHIOACETIC ACID] | −0.295 | 0.815 |  |  | 
18 | CCCCC[C@H](O)/C=C/[C@H]1C(=O)C[C@H](O)[C@@H]1C/C=C\CCCC(=O)O [PROSTAGLANDIN D2] | −0.413 | 0.751 |  |  | 
19 | CCCCCC(O)CCCC(=O)O (stereo not shown) [5-HYDROXYDECANOATE] | −0.357 | 0.781 |  |  | 
20 | OC[C@H]1NC[C@H](O)[C@@H](O)[C@@H]1O [deoxynorjrimycin(1)] |  |  | −0.154 | 0.899 | 
21 | Clc1ccc(-c2nc3sccn3c2/C=N/OCc2ccc(Cl)c(Cl)c2)cc1 [CITCO] |  |  | −0.162 | 0.894 | 
22 | O=C(NCC1CCCCN1)c1cc(OCC(F)(F)F)ccc1OCC(F)(F)F (stereo not shown) [FLECAINIDE] | −0.253 | 0.839 |  |  | 
23 | O=C1CN(/N=C/c2ccc(-c3ccc([N+](=O)[O-])cc3)o2)C(O)=N1 [DANTROLENE] |  |  | −0.098 | 0.934 | 
24 | c1ccc(C2CC2)c(OCC2=NCCN2)c1 [CIRAZOLINE] |  |  | 0.121 | 1.088 | 

Row | Compound | Log2 (fold) (luciferase activity, log2 of the fold difference relative to DMSO controls) [1] | Fold (luciferase activity, fold difference relative to DMSO controls) [2] | Log2 (fold) of luciferase activity relative to DMSO controls [3] | Fold (luciferase activity relative to DMSO controls) [4] [fold] | further results
25 | C=CC[C@@H]1/C=C(\C)C[C@H](C)C[C@H](OC)[C@H]2O[C@@](O)(C(=O)C(=O)N3CCCC[C@H]3C(=O)O[C@H](/C(C)=C/[C@@H]3CC[C@@H](O)[C@H](OC)C3)[C@H](C)[C@@H](O)CC1=O)[C@H](C)C[C@@H]2OC [FK-506] | −0.699 | 0.616 |  |  | 
26 | N#CC(C#N)=Cc1ccc([N+](=O)[O-])c(O)c1 [tyrphostin AG-126] |  |  | −0.085 | 0.943 | 
27 | CCCCC[C@H](O)CC[C@H]1[C@H](O)CC(=O)[C@@H]1CCCCCCC(=O)O [13,14-DIHYDRO-PGE1] |  |  | 0.587 | 1.502 | 
28 | O=C(O)c1cc(N(Cc2ccccc2O)Cc2cc(O)ccc2O)ccc1O [Lavendustin A] | −0.297 | 0.814 |  |  | 
29 | CCCCC[C@H](O)/C=C/C1=C(C/C=C\CCCC(=O)O)C(=O)CC1 [PROSTAGLANDIN B2] | −0.330 | 0.796 |  |  | 
30 | CCCCCCCC/C=C\C/C=C\C/C=C\CCCC(=O)NCCO [MEAD ETHANOLAMIDE] | −0.322 | 0.800 |  |  | 
31 | CC(C)C[C@H](NC(=O)[C@@H](O)[C@H](N)Cc1ccccc1)C(=O)O [Bestatin] | −0.688 | 0.621 |  |  | 
32 | NC12CC3CC(CC(C3)C1)C2 [AMANTIDINE] | −0.252 | 0.840 |  |  | 
33 | COC(=O)C[C@H](NC(=O)[C@H](C)NC(=O)[C@@H](NC(=O)OCc1ccccc1)C(C)C)C(=O)CF [zVAD-FMK] (Cbz-Val-Ala-Asp(OMe)-CH2F) | −0.597 | 0.661 |  |  | 
34 | CCOC(=O)CN1C(=O)CC(C[C@@H](O)[C@@H]2C[C@@H](C)C[C@H](C)C2=O)CC1=O [cycloheximide-N-ethylethanoate] |  |  | −0.014 | 0.990 | 
35 | Cc1ccc(S(=O)(=O)N[C@@H](Cc2ccccc2)C(=O)CCl)cc1 [Tosyl-Phe-CMK (TPCK)] | −0.233 | 0.851 |  |  | 
36 | CCCCCC1OC1C/C=C\C/C=C\C/C=C\CCCC(=O)O (stereo not shown) [14,15-EPOXYEICOSATRIENOIC ACID] |  |  | 0.322 | 1.250 | 
37 | N#Cc1cc2c(OCC(O)CN3CCN(C(c4ccccc4)c4ccccc4)CC3)cccc2[nH]1 (stereo not shown) [SDZ-201106] |  |  |  |  | Fold (luciferase activity, fold difference relative to DMSO controls) (in vivo): 0.804; Log2 (fold) (luciferase activity, log2 of the fold difference relative to DMSO controls) (in vivo): −0.315
38 | CCCCCCCCCCCCCC(=O)N[C@H](C)[C@@H](O)c1ccccc1 [MAPP, D-erythro] | −0.266 | 0.832 |  |  | 
39 | COc1ccc(Cl)cc1C(=O)NCCc1ccc(S(=O)(=O)NC(=O)NC2CCCCC2)cc1 [GLYBURIDE] | −0.217 | 0.861 |  |  | 
40 | OC[C@H]1O[C@@H](n2cnc3cc(Cl)c(Cl)cc32)[C@H](O)[C@@H]1O [DRB] | −0.246 | 0.843 |  |  | 
41 | KN-62 | −0.513 | 0.701 |  |  | 
42 | CCCCCCCCCCCCCCCCCCOC[C@H](COP(=O)([O-])OCC[N+](C)(C)C)OC(C)=O [PAF C18] | −0.455 | 0.729 |  |  | 
43 | CCCCC/C=C\C/C=C\C/C=C\C/C=C\CCCC(N)=O [ARACHIDONAMIDE] |  |  | −0.069 | 0.954 | 
44 | CCCCC[C@H](O)CC(=O)CCc1ccc(O)c(OC)c1 [GINGEROL] | −0.273 | 0.827 |  |  | 
45 | LY-294002 |  |  | −0.204 | 0.868 | 
46 | O=C(O)CCC/C=C\C[C@@H]1[C@@H](/C=C/[C@@H](O)COc2cccc(C(F)(F)F)c2)[C@H](O)C[C@@H]1O (racemic) [FLUPROSTENOL] |  |  | 0.058 | 1.041 | 
47 | CCCCCCCCCCCCCCCCOCC(CO)OC (stereo not shown) [1-HEXADECYL-2-O-METHYL-GLYCEROL] | −0.219 | 0.859 |  |  | 
